Measurements published in patent US9163018B2, “Method of treatment of age-related macular degeneration (AMD)” (Prana Biotechnology Limited, priority 2006, dated 2015).
Like-named read-outs stand apart in the source and are kept apart here.

How the values were obtained:
[1] = molecular target: T1, Abeta:Zn (25:50 μM) Synthetic Aggregations (Homo sapiens, UniProt P05067); assay: Disaggregation of Abeta:Zn synthetic aggregates (ThT fluorescence); type: biochemical; settings: for Disaggregation % Aggregate reduction at 5 μM: 5 μM test compound
T1 construct: PB Compound Mediated Dissolution of Aggregated Abeta 1-42; purchased Keck Laboratory, Yale University School of Medicine
T1 sequence (P05067 672-713 limits assumed): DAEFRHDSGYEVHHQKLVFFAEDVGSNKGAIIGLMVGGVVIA
Procedure: PB Compound Mediated Dissolution of Aggregated Abeta 1-42
Abeta1-42, is available from the Keck Laboratory, Yale University School of Medicine. PBS (pH 6.6): Sigma Cat# D-8662. Zn(ZnCl2): BDH Cat#100884E. (Dissolved in water in 1 mM concentration) DMSO: Ajax Cat#2225. Thioflavin T: Sigma Cat# T-3516. (Dissolved in water in 1 mM concentration)
By way of example of an amyloid composition, Abeta is dissolved in distilled water and peptide concentration is assessed by measured absorption at 214 nm in UV spectrometer. An aggregation reactive mixture (per one concentration of one testing compound) is set us as follows: Abeta: 25 μM, ZnCl2 50 μM, ThT 50 μM, PBS to make up to 500 μl. The tube is wrapped with foil and incubated at 37 degrees by rotation for 24 hours. A serial dilution of each test compound is made up in DMSO, for example: 100 μM, 500 μM, 1000 μM, 2500 μM and 5000 μM. The final concentrations are 1, 5, 10, 25 and 50 μM, 5 μl of each of these compounds is placed in a centrifuge tube and 5 μl of DMSO is added to both negative and positive control tubes. 495 μl of aggregates (after 24 hours incubation) is added to the centrifuge tube. The negative control is PBS plus ZnCl2 and ThT and DMSO. The positive control is aggregates plus DMSO. The tubes are incubated at 37 degrees for further 2 hours with rotation. Samples are measured for ThT fluorescence using an LS55 (Perkin Elmer) fluorimeter in a cuvette (500 μl volume). The excitation wavelength is 450 nm and the emission wavelength is 480 nm. Data are analyzed using graph pad prism program. The tested compounds included so called “PB” compounds.

[2] = tested on: Abeta in extract of post-mortem human AD brain tissue; assay: BAS: human brain amyloid solubilization assay; type: biochemical
Procedure: Assay 5. Human Brain Amyloid Solubilization Assay
This assay was performed in order to assess the ability of a test compound to mobilise Aβ, as an example form of amyloid, from the insoluble to the soluble phase of an extract of tissue from post mortem human AD brain.
Up to 0.5 g of plaque-bearing cortex without meninges was homogenized using a DIAX 900 homogenizer (Hendolph and Co, Kelheim, Germany) or other suitable device for three 30-second periods at full speed in 2 ml of ice-cold phosphate-buffered saline, pH 7.4. To obtain the phosphate-buffered saline-extractable fraction, the homogenate was centrifuged at 100,000×g for 30 min and the supernatant removed. Alternatively, the tissue was freeze dried then pulverized to form a powder which was then weighed out into aliquots for extraction as above. Supernatant, either freeze-dried and resuspended or in unconcentrated form, was dissolved in 200 μl of Tris-Tricine sodium dodecyl sulfate (SDS) sample buffer pH 8.3 containing 8% SDS, 10% 2-mercaptoethanol. Aliquots (10 μl) were then boiled for 10 minutes before SDS-polyacrylamide gel electrophoresis. The insoluble fraction of the cortical samples was obtained by resuspending the initial pelleted sample in 1 ml of phosphate-buffered saline, A 50-μl aliquot of this suspension was then boiled in […] of sample buffer as above.
Tris-Tricine polyacrylamide gel electrophoresis was performed by loading appropriately diluted samples on to 10% to 20% gradient gels (Novex, San Diego, Calif.) followed by transfer on to 0.2-μm nitrocellulose membrane (Bio-Rad, Hercules, Calif.). Aβ was detected by using monoclonal antibody W02, which detects residues 5 through 8, […] (or another suitable antibody) in conjunction with horseradish peroxidase-conjugated rabbit anti-mouse IgG (Dako, Denmark), and visualized by using enhanced chemiluminescence (eg ECL; Amersham Life Science, Buckinghamshire, UK). Each gel included three lanes containing 0.5, 1, and 2 ng of synthetic Aβ40 (Keck Laboratory, Yale University, New Haven, Conn.) as reference standards.
Blot films were scanned by using a suitable imaging system such as the UVP gel documentation system, and densitometry performed using suitable software, eg UVP Labworks. The dynamic range of the film/scanner was determined by using a step tablet (No. 911ST600, Kodak, Rochester N.Y.), a calibrated film exposed by the manufacturer to provided steps of known increasing intensity. The quantifiable range of signal intensity for densitometric analysis of the mono- and dimeric Aβ bands was based on the comparison with a curve obtained by scanning and densitometry of the step tablet.
All samples were analyzed at least twice, and gel loadings and dilutions were adjusted to fit within the quantifiable region of the standard curve. The proportion of ‘soluble’ to ‘insoluble’ Aβ may be used to determine the efficiency of extraction of a test compound compared with the efficiency of a known compound. The insoluble Aβ being comprised of the pelletable fraction derived from the insoluble amyloid plaque from the above cortical samples and the soluble fraction comprising monomeric and/or oligomeric soluble Aβ.

[3] = tested on: primary cortical neuronal cultured cells; assay: Test compound cytotoxicity, MTS assay, primary cortical neuronal cultures; type: cell-based, mouse; settings: for Cytotox (% viable) Neuronal cells at 1 μM: 1 μM test compound; for Cytotox (% viable) Neuronal cells at 10 μM: 10 μM test compound
Method in brief: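 Primary cortical neurons were cultured five days in Neurobasal/B27, then exposed on day six to compounds (from 2.5 mM DMSO stocks) in medium minus antioxidants, in triplicate for 4 days at 37° C. Viability was measured by MTS, 2 h at 37° C, absorbance at 560 nm.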

[4] = molecular target: T2, Aβ 1-42 (Homo sapiens, UniProt P05067); assay: Fluorometric H2O2 assay (inhibition of Abeta H2O2 production); type: biochemical
T2 construct: The reaction solutions contained Aβ 1-42 at concentrations
T2 sequence (P05067 672-713 limits assumed): as above
Method in brief: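 Copper-dependent Aβ H2O2 production measured fluorometrically with deacetylated dichlorofluorescein plus HRP in PBS, pH 7.4. Incubation 60 min at 37 C, test compound included in wells. H2O2 quantified against H2O2 standards.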

[5] = Mice plasma concentration after oral dose; type: in vivo; settings: 30 min to 4 h after single or repeat oral dose of 30 mg/kg
[6] = Toxicity, visual observations in mice; settings: 30 mg/kg; duration and visual observations
[7] = max effect across the concentration range, referenced to baseline PBS
[8] = concentration required to inhibit 50% of Abeta H2O2 production, read-out: H2O2 IC50

Compound | Disaggregation EC50 ([1]; Abeta:Zn 25:50 μM aggregates) | BAS max effect [2] | Cytotox (% viable) Neuronal cells at 1 μM [3] [%] | Cytotox (% viable) Neuronal cells at 10 μM [3] [%] | IC50 [4] [µM] | Disaggregation % Aggregate reduction at 5 μM [1] [%] | EC50 ([1]; Abeta:Zn 25:50 μM aggregates) [µM] | BAS max effect [2, 7] [%] | IC50 [4, 8] [µM] | Mice plasma concentration [5] | Toxicity at 30 mg/kg [6]
Oc1cccc2cccnc12 [PB 42] | Inactive | BAS: 227% (1 μM- 100 μM) | 93 | 36 | 0.7 | – | – | – | – | – | –
Oc1c(Cl)cc(Cl)c2cccnc12 [PB 45] | – | – | 98 | 75 | – | 36.1 | 8.5 | 387 | 0.4 | – | –
Oc1c(Br)cc(Br)c2cccnc12 [PB 47] | – | – | 100 | 94 | – | 50 | 5 | 412 | 0.5 | – | –
Cc1ccccc1-c1cc(I)c(O)c2ncccc12 [PB 861] | – | – | 99 | 38 | – | 31.4 | – | 439 | < 0.91 | – | –
NCc1ccc2cccc(O)c2n1 [PB 968] | – | – | 101 | 97 | – | 31.6 | 16.3 | 390 | 0.26 | – | –
Oc1cccc2ccc(-c3ccccn3)nc12 [PB 1006] | – | – | 107 | 75 | – | 49.5 | 5.27 | 463 | 0.53 | – | –
O=c1c(-c2ccc(Cl)cc2)cnc2c(O)c(I)ccn12 [PB 1063] | – | – | 41 | 33 | – | 40.5 | 19.7 | – | – | Up to 450 ng/ mL in mice ng/mL | 10 days, mild toxic signs
CN(C)Cc1cnc2c(Cl)cc(Cl)c(O)c2n1.Cl [PB 1066] | – | – | 92 | 95 | – | 35 | > 50 | – | > 10 | Up to 1000 ng/mL in mice | –
CCn1nccc1-n1cnc2c(O)c(Cl)cc(Cl)c2c1=O [PB 1088] | – | – | 102 | 94 | – | 16.4 | > 20 | – | – | Up to 3896 ng/ mL ng/mL | 10 days, none
